Data published in US4014860A, “Plasminostreptin (enzyme inhibitor) and method for producing it from streptomyces” (Takeda Chemical Industries, Ltd., priority 1972, dated 1977).

Assays:
[1] = molecular target: T1, plasmin-UK (Homo sapiens, UniProt P00747); experiment: Plasmin activity of rat blood plasma before and after intravenous administration; type: in vivo; conditions: rats, 0.8 mg intravenous, 1 hour after administration; result in words
T1 construct: purchased Midorijuji
Description: From each of five rats (male, SD, 7 weeks old), blood samples are taken before the administration of plasminostreptin and also 1 hour after the intravenous administration of 0.8 mg plasminostreptin. The plasma is separated from each of the blood samples and the abovementioned plasmin-UK solution is added in each plasma sample to various concentrations.
Immediately thereafter, the activity of plasmin in each plasma sample is determined using casein as substrate. The plasmin activity of blood plasma samples from each rat before and after the administration of plasminostreptin are compared.
Target sequence in this assay (P00747 581-810 limits assumed): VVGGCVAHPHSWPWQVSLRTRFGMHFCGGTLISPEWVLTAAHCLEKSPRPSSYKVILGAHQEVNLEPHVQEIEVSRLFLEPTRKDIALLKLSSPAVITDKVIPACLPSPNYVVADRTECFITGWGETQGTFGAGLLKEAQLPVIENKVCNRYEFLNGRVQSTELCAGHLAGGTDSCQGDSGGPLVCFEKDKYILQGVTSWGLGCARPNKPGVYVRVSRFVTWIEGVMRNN
Target sequence in this assay (P00747 97-580 limits assumed): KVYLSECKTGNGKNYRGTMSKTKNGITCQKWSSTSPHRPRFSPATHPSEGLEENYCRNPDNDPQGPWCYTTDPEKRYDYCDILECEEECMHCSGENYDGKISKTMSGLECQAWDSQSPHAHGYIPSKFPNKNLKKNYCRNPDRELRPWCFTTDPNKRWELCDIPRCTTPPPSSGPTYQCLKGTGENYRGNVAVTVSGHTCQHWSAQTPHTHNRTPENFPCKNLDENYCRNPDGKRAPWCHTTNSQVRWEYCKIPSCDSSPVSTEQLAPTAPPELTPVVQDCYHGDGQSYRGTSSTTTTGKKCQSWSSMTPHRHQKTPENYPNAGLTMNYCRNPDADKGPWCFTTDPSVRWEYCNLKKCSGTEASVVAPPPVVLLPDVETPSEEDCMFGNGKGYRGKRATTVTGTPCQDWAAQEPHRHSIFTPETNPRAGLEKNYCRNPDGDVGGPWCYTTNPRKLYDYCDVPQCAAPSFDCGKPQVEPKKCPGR

[2] = molecular target: T2, kallikrein (Beyer, Depot - Padutin) (Sus scrofa, UniProt P00752); experiment: Kallikrein esterase activity against benzoylarginine ethyl ester; type: biochemical; conditions: result in words
T2 construct: purchased Beyer (so in the source); Bayer) Depot - Padutin

[3] = molecular target: T1, plasmin-UK; experiment: Plasmin-casein system; type: biochemical; conditions: 50% inhibition of 0.4 casein units of plasmin-UK; casein substrate
Description: (§1) 2. Plasmin - UK (Midorijuji, urokinase-activated plasmin)
3. plasmin-casein system: Into a test tube are poured 1 ml of casein solution [4%, buffer (2)], 0.5 ml of buffer (2) and 0.3 ml of a plasminostreptin solution of varying concentrations, followed by the addition of 0.2 ml of plasmin-UK solution [2 casein units/ml, buffer (2)]. The mixture is blended well and allowed to stand at 37° C for 20 minutes. The reaction is terminated by the addition of 2 ml of 1.7 M perchloric acid and the system is allowed to stand at room temperature for another 1 hour. The reaction mixture is filtered through a filter paper and the absorbance of the resulting filtrate at 280 mμ is measured.
The plasmin-inhibiting activity of plasminostreptin is determined and indicated as follows.
Thus, the amount of plasminostreptin is determined which is required to effect a 50% inhibition of the activity of 0.4 casein units of plasmin-UK in the absence of plasminostreptin and is shown in units of ID50.
Target sequence in this assay (P00747 581-810 limits assumed): as the sequence (P00747 581-810 limits assumed) above
Target sequence in this assay (P00747 97-580 partner limits assumed): as the sequence (P00747 97-580 limits assumed) above

[4] = molecular target: T1, plasmin-UK; experiment: Plasmin-fibrin system (determination of clot lysis time); type: biochemical; conditions: 50% inhibition of 0.08 casein units of plasmin-UK
Description: as §1
Target sequence in this assay (P00747 581-810 limits assumed): as the sequence (P00747 581-810 limits assumed) above
Target sequence in this assay (P00747 97-580 partner limits assumed): as the sequence (P00747 97-580 limits assumed) above
(2) Plasmin-fibrin system (determination of clot lysis time): Into a small test tube are poured 0.4 ml of a fibrinogen solution (0.25%, buffer (1)), 0.3 ml of buffer (1) and 0.1 ml of plasminostreptin solution of varying concentrations, followed by the addition of 0.1 ml of a plasmin-UK solution [0.8 casein units/ml, buffer (1)]. The mixture in blended well and immediately thereafter, 0.1 ml of a thrombin solution (50 J. P. units/ml, 0.145 M sodium chloride) is added. The resulting gel is allowed to stand at 37° C and the time necessary to lyse the clot is measured. The plasmin-inhibiting activity of plasminostreptin is determined by the procedure set forth in Biochimica Biophysica Acta. 214, 411 (1970). Thus, the amount of plasminostreptin which is required for a 50% inhibition of the activity of 0.08 casein units of plasmin-UK, which occurs in the reaction mixture, is determined from the concentration of plasminostreptin which will double the clot lysis time in the absence of plasminostreptin, and the above amount is indicated in units of ID50.

[5] = Isoelectric point by isoelectric focussing method; type: physicochemical
Source text: 6. Isoelectric point: about 6.3 as determined by the isoelectric focussing method Acta Chemica Scandinavica,20, 820 (1966)

[6] = molecular target: T3, Nagarse (Bacillus amyloliquefaciens, UniProt P00782); experiment: Nagarse-casein system; type: biochemical; conditions: 50% inhibition of 10 μg of Nagarse; casein substrate, pH 10.5
T3 construct: purchased Nagase Sangyo
T3 sequence (P00782 108-382): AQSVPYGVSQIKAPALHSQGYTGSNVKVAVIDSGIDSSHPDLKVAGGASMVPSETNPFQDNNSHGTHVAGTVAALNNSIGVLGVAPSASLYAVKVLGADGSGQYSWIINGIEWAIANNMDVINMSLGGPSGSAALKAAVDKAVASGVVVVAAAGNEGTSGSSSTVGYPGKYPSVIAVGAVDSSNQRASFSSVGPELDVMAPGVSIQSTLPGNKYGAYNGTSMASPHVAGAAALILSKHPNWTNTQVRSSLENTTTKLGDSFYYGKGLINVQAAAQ
Description: 5. Nagarse(crystalline protease, Nagase Sangyo)
(§2) Into a test tube are poured 1 ml of a casein solution [2%, buffer (3)], 0.5 ml of buffer (3), and 0.4 ml of a plasminostreptin solution of varying concentration and after the addition of 0.1 ml of either a Fusarium alkaline protease solution [40 μg/ml, buffer (3)] or Nagarse solution [100 μg/ml, buffer (3)], the mixture is blended well and allowed to stand under conditions similar to those described for the plasmin-casein system. Thereafter, also in the same manner as described above, the amount of plasminostreptin required for a 50% inhibition of the activity of 4 μg of Fusarium alkaline protease and 10 μg of Nagarse in the absence of plasminostreptin is determined, respectively, and indicated in units of ID50.

[7] = Stability (heat treatment, remaining activity); type: physicochemical; conditions: 30 minutes' treatment at pH 4-9 and at 100° C
Description: More than 50 percent of the original activity remains intact even after a 30 minutes' treatment at pH 4-9 and at 100° C.

[8] = system: mice; experiment: Acute toxicity tests in mice; type: in vivo
Source text: The toxicity of plasminostreptin is extremely low and its LD50 values as determined by acute toxicity tests in mice are more than 5 g/kg orally, more than 5 g/kg intraperitoneally and 2 to 3 g/kg, intravenously.

[9] = molecular target: T4, Plasmin-SK (Homo sapiens, UniProt P00747); experiment: Plasmin-fibrin system (fibrin plate method); type: biochemical
T4 construct: made in house
Description: 1. Plasmin-SK: The euglobulin fraction obtained from human blood plasma is dissolved in buffer (1) which is described below and then, activated with streptokinase (Lederle) [Annual Report of Takeda Research Laboratories, 28, 140 (1969)].
1. Plasmin-fibrin system (fibrin plate method): Ten ml of a fibrinogen solution (1%, buffer (1)) is placed in a petri dish (9 cm in diameter) and gelled by the addition of 0.2 ml of thrombin [50 J. P. units (Japanese Pharmacopeia units)/ml, 0.145 M sodium chloride]. The gel is allowed to stand at 30° C for 30 minutes to prepare a fibrin plate. Meanwhile, paper discs (8mm in diameter, water-absorbing capacity: 0.025 ml) are dipped in a plasminostreptin solution of varying concentrations and allowed to dry on a filter paper in the air.
Then, 0.015 ml of a plasmin-SK solution is dropped onto each of the discs, which is placed on the above fibrin plate. After the system is allowed to stand at 37° C for 5 to 10 hours, the formation of lyzed zone in evaluated. The plasmin-inhibiting activity of plasminostreptin is indicated as the concentration of plasminostreptin solution required for a complete inhibition of fibrinolysis.

[10] = Solubility; type: physicochemical
[11] = system: Fusarium alkaline protease; experiment: Fusarium alkaline protease-casein system; type: biochemical; conditions: 50% inhibition of 4 μg of Fusarium alkaline protease; casein substrate, pH 10.5
Description: 4. fusarium crystalline alkaline protease (U.S.P. No. 3652399)
as §2

[12] = molecular target: T5, Trypsin (Bos taurus, UniProt P00760); experiment: Trypsin-casein system; type: biochemical; conditions: 50% inhibition of 10 μg of trypsin; casein substrate
T5 construct: purchased Sigma Type III
T5 sequence (P00760 24-246): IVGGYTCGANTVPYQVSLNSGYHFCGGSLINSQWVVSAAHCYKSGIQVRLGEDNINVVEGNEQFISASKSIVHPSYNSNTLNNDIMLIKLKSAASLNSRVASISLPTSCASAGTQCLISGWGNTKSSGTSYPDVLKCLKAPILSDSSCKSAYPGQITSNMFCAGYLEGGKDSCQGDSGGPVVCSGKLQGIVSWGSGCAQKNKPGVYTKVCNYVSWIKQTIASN
Description: 3. Trypsin (Sigma, crystalline, Type III)
Into a test tube are poured 1 ml of a casein solution [2%, buffer (2)], 0.5 ml of buffer (2) and 0.3 ml of a plasminostreptin solution of varying concentrations and after the addition of 0.2 ml of a trypsin solution [50 μg/ml, buffer(2)], the mixture is blended well and allowed to stand under conditions similar to those described for the plasmin-casein system. Thereafter, also in the same manner as described above, the amount of plasminostreptin required for a 50% inhibition of the activity of 10 μg of trypsin in the absence of plasminostreptin is determined and indicated in units of ID50.

T4 sequence (P00747 581-810 limits assumed): as the sequence (P00747 581-810 limits assumed) above
T4 sequence (P00747 97-580 partner limits assumed): as the sequence (P00747 97-580 limits assumed) above
T2 sequence (P00752 8-246): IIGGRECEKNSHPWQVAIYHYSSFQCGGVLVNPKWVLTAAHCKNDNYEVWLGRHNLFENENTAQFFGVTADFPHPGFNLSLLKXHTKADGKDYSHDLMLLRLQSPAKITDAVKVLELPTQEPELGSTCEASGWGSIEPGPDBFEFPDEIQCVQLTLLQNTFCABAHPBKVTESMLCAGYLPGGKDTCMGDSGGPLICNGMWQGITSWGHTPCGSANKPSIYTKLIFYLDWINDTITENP

In the case of plasminostreptin, the “plasmin activity of blood plasma after administration” value [1] is reported as “significantly inhibited”, the “Inhibition of the activity of kallikrein” value [2] is reported as “can hardly be detected” and the ID50 [3] is reported as less than 10 µg. For the same substance, the ID50 [4] was less than 10 µg, the Isoelectric point [5] was “about 6.3” and the ID50 [6] was less than 5 µg. For the same substance, the “original activity remaining intact” value [7] was “More than 50%”, the LD50 ([8]; intraperitoneally) was “more than 5 g/kg” and the LD50 ([8]; orally) was “more than 5 g/kg”. The “concentration for a complete inhibition of fibrinolysis” value ([9]; fibrin plate method, crystalline product of Example 1) was 20 µg/mL, the “Concentration for complete inhibition” value ([9]; fibrin plate, complete inhibition of fibrinolysis, Table 3) was less than 30 µg/mL and the “Solubility in aqueous solution” value ([10]; ammonium sulfate at 60% saturation) was “almost completely precipitated”. The Solubility ([10]; glacial acetic acid, alcohols, acetone, chloroform, ether, hexane and other organic solvents) was “only sparingly soluble”, the “Solubility in aqueous solution” value ([10]; neighborhood of pH 6) was “solubility drops” and the Solubility ([10]; pyridine) was “slightly soluble”. The Solubility ([10]; water and aqueous ammonia) was “Soluble”, the ID50 [11] was less than 6 µg and the ID50 [12] was less than 5 µg.
